Experimental data taken from PubChem BioAssay AID256 (DTP/NCI, 2004).
Where “and” joins values, the source holds several entries; their conditions need not be identical. Equal values may be shown once. Inconclusive results and toxic doses are left out.

System: CD2F1 mice, L1210 leukemia ip, survival T/C
Assay: NCI In Vivo Anticancer Drug Screen. Data for tumor model L1210 Leukemia (intraperitoneal) in CD2F1 (CDF1) mice
Conditions: higher = longer survival
Procedure, shortened: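 In this screen, transplantable tumors were grown in mice given either the compound or its vehicle. Results were expressed as the treated measurement relative to the control measurement.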

[1] = endpoint: mean survival time, dose: 100.0 mg/kg/injection, schedule: Q01DX009 (ip), vehicle: saline with Tween-80
[2] = endpoint: mean survival time, dose: 200.0 mg/kg/injection, schedule: Q01DX009 (ip), vehicle: saline with Tween-80
[3] = endpoint: mean survival time, dose: 100.0 mg/kg/injection, schedule: Q04DX003 (ip), vehicle: saline with Tween-80
[4] = endpoint: mean survival time, dose: 200.0 mg/kg/injection, schedule: Q04DX003 (ip), vehicle: saline with Tween-80
[5] = endpoint: mean survival time, dose: 400.0 mg/kg/injection, schedule: Q04DX003 (ip), vehicle: saline with Tween-80

O=CC(CO)CC(C=O)n1cnc2c(=O)[nH]cnc21 (stereo unspecified)
T/C (endpoint: mean survival time, dose: 60.0 mg/kg/injection, schedule: Q01DX009 (ip), vehicle: saline): 123 % of control | T/C (endpoint: mean survival time, dose: 89.0 mg/kg/injection, schedule: Q01DX009 (ip), vehicle: saline): 116 % of control | T/C (endpoint: mean survival time, dose: 300.0 mg/kg/injection, schedule: Q01DX009 (ip), vehicle: saline): 159 % of control | T/C (endpoint: mean survival time, dose: 300.0 mg/kg/injection, schedule: Q04DX003 (ip), vehicle: saline): 150 % of control | T/C (endpoint: median survival time, dose: 37.5 mg/kg/injection, schedule: Q01DX009 (ip), vehicle: saline): 113 % of control and 124 % of control

COc1cc(N(C)C)ccc1/C=C\c1ccnc2ccccc12
T/C (endpoint: mean survival time, dose: 50.0 mg/kg/injection, schedule: Q01DX001 (ip), vehicle: saline with Tween-80): 96 % of control | T/C (endpoint: mean survival time, dose: 100.0 mg/kg/injection, schedule: Q01DX001 (ip), vehicle: saline with Tween-80): 95 % of control | T/C (endpoint: mean survival time, dose: 200.0 mg/kg/injection, schedule: Q01DX001 (ip), vehicle: saline with Tween-80): 95 % of control | T/C (endpoint: mean survival time, dose: 400.0 mg/kg/injection, schedule: Q01DX001 (ip), vehicle: saline with Tween-80): 93 % of control

CC[C@@]1(O)C(=O)OCc2c1cc1n(c2=O)Cc2cc3cc(OC)ccc3nc2-1
T/C (endpoint: mean survival time, dose: 0.78 mg/kg/injection, schedule: Q04DX003 (ip), vehicle: water): 119 % of control | T/C (endpoint: mean survival time, dose: 3.13 mg/kg/injection, schedule: Q04DX003 (ip), vehicle: water): 155 % of control and 181 % of control | T/C (endpoint: mean survival time, dose: 6.25 mg/kg/injection, schedule: Q04DX003 (ip), vehicle: water): 113 % of control

OCCC1=CCCCC1
T/C [1]: 91 % of control | T/C [2]: 97 % of control | T/C (endpoint: mean survival time, dose: 400.0 mg/kg/injection, schedule: Q01DX009 (ip), vehicle: saline with Tween-80): 98 % of control

COc1ccc(/C=C2/CCOC2=O)cc1
T/C (endpoint: mean survival time, dose: 3.12 mg/kg/injection, schedule: Q01DX001 (ip), vehicle: Klucel (hydroxypropylcellulose) (HPC)): 104 % of control | T/C (endpoint: mean survival time, dose: 3.12 mg/kg/injection, schedule: Q04DX002 (ip), vehicle: Klucel (hydroxypropylcellulose) (HPC)): 103 % of control | T/C (endpoint: mean survival time, dose: 6.25 mg/kg/injection, schedule: Q01DX001 (ip), vehicle: Klucel (hydroxypropylcellulose) (HPC)): 102 % of control | T/C (endpoint: mean survival time, dose: 6.25 mg/kg/injection, schedule: Q04DX002 (ip), vehicle: Klucel (hydroxypropylcellulose) (HPC)): 100 % of control | T/C (endpoint: mean survival time, dose: 12.5 mg/kg/injection, schedule: Q01DX001 (ip), vehicle: Klucel (hydroxypropylcellulose) (HPC)): 116 % of control | T/C (endpoint: mean survival time, dose: 12.5 mg/kg/injection, schedule: Q04DX002 (ip), vehicle: Klucel (hydroxypropylcellulose) (HPC)): 107 % of control

CC(C)(C)OC(=O)NC(CSC(c1ccccc1)(c1ccccc1)c1ccccc1)C(=O)NCC(=O)O (stereo unspecified)
T/C (endpoint: mean survival time, dose: 75.0 mg/kg/injection, schedule: Q01DX001 (ip), vehicle: saline): 96 % of control

CC(C)[C@](O)(C(=O)OCC1=CCN2CC[C@@H](O)[C@@H]12)[C@H](C)O
T/C (endpoint: median survival time, dose: 12.5 mg/kg/injection, schedule: Q01DX009 (ip), vehicle: water): 103 % of control | T/C (endpoint: median survival time, dose: 25.0 mg/kg/injection, schedule: Q01DX009 (ip), vehicle: water): 100 % of control | T/C (endpoint: median survival time, dose: 50.0 mg/kg/injection, schedule: Q01DX009 (ip), vehicle: water): 98 % of control | T/C (endpoint: median survival time, dose: 100.0 mg/kg/injection, schedule: Q01DX009 (ip), vehicle: water): 122 % of control | T/C (endpoint: median survival time, dose: 200.0 mg/kg/injection, schedule: Q01DX009 (ip), vehicle: water): 112 % of control | T/C (endpoint: median survival time, dose: 400.0 mg/kg/injection, schedule: Q01DX009 (ip), vehicle: water): 112 % of control

Nc1ccc2nc3c4ccccc4c(O)n3nc2c1
T/C [1]: 89 % of control | T/C [2]: 104 % of control

COC(=N)c1ccc(Cl)cc1
T/C [3]: 97 % of control | T/C [4]: 103 % of control | T/C [5]: 93 % of control

NC(CCl)=NCC12CC3CC(CC(C3)C1)C2
T/C (endpoint: median survival time, dose: 3.0 mg/kg/injection, schedule: Q01DX009 (ip), vehicle: Klucel (hydroxypropylcellulose) (HPC)): 104 % of control | T/C (endpoint: median survival time, dose: 6.0 mg/kg/injection, schedule: Q01DX009 (ip), vehicle: Klucel (hydroxypropylcellulose) (HPC)): 107 % of control | T/C (endpoint: median survival time, dose: 12.0 mg/kg/injection, schedule: Q01DX009 (ip), vehicle: Klucel (hydroxypropylcellulose) (HPC)): 108 % of control | T/C (endpoint: median survival time, dose: 24.0 mg/kg/injection, schedule: Q01DX009 (ip), vehicle: Klucel (hydroxypropylcellulose) (HPC)): 110 % of control

O=c1[nH]cnc2ccccc12
T/C (endpoint: mean survival time, dose: 100.0 mg/kg/injection, schedule: Q04DX002 (ip), vehicle: saline with Tween-80): 96 % of control | T/C (endpoint: mean survival time, dose: 200.0 mg/kg/injection, schedule: Q04DX002 (ip), vehicle: saline with Tween-80): 101 % of control | T/C (endpoint: mean survival time, dose: 400.0 mg/kg/injection, schedule: Q04DX002 (ip), vehicle: saline with Tween-80): 104 % of control

CCN1/C(=C/C=C/C=C/c2sc3ccccc3[n+]2CC)Sc2ccccc21
T/C (endpoint: mean survival time, dose: 0.08 mg/kg/injection, schedule: Q01DX009 (ip), vehicle: saline): 109 % of control | T/C (endpoint: mean survival time, dose: 0.09 mg/kg/injection, schedule: Q01DX009 (ip), vehicle: saline): 117 % of control | T/C (endpoint: mean survival time, dose: 0.12 mg/kg/injection, schedule: Q01DX009 (ip), vehicle: saline): 114 % of control | T/C (endpoint: mean survival time, dose: 0.16 mg/kg/injection, schedule: Q04DX003 (ip), vehicle: saline): 105 % of control | T/C (endpoint: mean survival time, dose: 0.19 mg/kg/injection, schedule: Q01DX009 (ip), vehicle: saline): 121 % of control | T/C (endpoint: mean survival time, dose: 0.25 mg/kg/injection, schedule: Q04DX003 (ip), vehicle: saline): 112 % of control | T/C (endpoint: mean survival time, dose: 0.28 mg/kg/injection, schedule: Q01DX009 (ip), vehicle: saline): 114 % of control | T/C (endpoint: mean survival time, dose: 0.33 mg/kg/injection, schedule: Q04DX002 (ip), vehicle: saline): 101 % of control | T/C (endpoint: mean survival time, dose: 0.38 mg/kg/injection, schedule: Q04DX003 (ip), vehicle: saline): 108 % of control | T/C (endpoint: mean survival time, dose: 0.42 mg/kg/injection, schedule: Q01DX009 (ip), vehicle: saline): 122 % of control | T/C (endpoint: mean survival time, dose: 0.5 mg/kg/injection, schedule: Q04DX002 (ip), vehicle: saline): 112 % of control | T/C (endpoint: mean survival time, dose: 0.57 mg/kg/injection, schedule: Q04DX003 (ip), vehicle: saline): 118 % of control | T/C (endpoint: mean survival time, dose: 0.66 mg/kg/injection, schedule: Q01DX001 (ip), vehicle: saline): 120 % of control | T/C (endpoint: mean survival time, dose: 0.76 mg/kg/injection, schedule: Q04DX002 (ip), vehicle: saline): 106 % of control | T/C (endpoint: mean survival time, dose: 0.85 mg/kg/injection, schedule: Q04DX003 (ip), vehicle: saline): 112 % of control | T/C (endpoint: mean survival time, dose: 0.99 mg/kg/injection, schedule: Q01DX001 (ip), vehicle: saline): 118 % of control | T/C (endpoint: mean survival time, dose: 1.1 mg/kg/injection, schedule: Q04DX002 (ip), vehicle: saline): 114 % of control | T/C (endpoint: mean survival time, dose: 1.5 mg/kg/injection, schedule: Q01DX001 (ip), vehicle: saline): 100 % of control | T/C (endpoint: mean survival time, dose: 1.7 mg/kg/injection, schedule: Q04DX002 (ip), vehicle: saline): 97 % of control | T/C (endpoint: mean survival time, dose: 2.2 mg/kg/injection, schedule: Q01DX001 (ip), vehicle: saline): 114 % of control | T/C (endpoint: mean survival time, dose: 3.3 mg/kg/injection, schedule: Q01DX001 (ip), vehicle: saline): 114 % of control

COC(=O)c1cc(C2OC3OC(C)(C)OC3C2OCc2ccccc2)nn1-c1ccc([N+](=O)[O-])cc1 (stereo unspecified)
T/C (endpoint: median survival time, dose: 11.5 mg/kg/injection, schedule: Q01DX005 (ip), vehicle: other): 101 % of control | T/C (endpoint: median survival time, dose: 23.0 mg/kg/injection, schedule: Q01DX005 (ip), vehicle: other): 100 % of control | T/C (endpoint: median survival time, dose: 46.0 mg/kg/injection, schedule: Q01DX005 (ip), vehicle: other): 100 % of control | T/C (endpoint: median survival time, dose: 92.0 mg/kg/injection, schedule: Q01DX005 (ip), vehicle: other): 100 % of control

Cc1ccc(CS(=O)(=O)C(Cl)(Cl)c2ccc(C)cc2)cc1
T/C (endpoint: mean survival time, dose: 100.0 mg/kg/injection, schedule: Q04DX003 (ip), vehicle: Klucel (hydroxypropylcellulose) (HPC)): 94 % of control | T/C (endpoint: mean survival time, dose: 200.0 mg/kg/injection, schedule: Q04DX003 (ip), vehicle: Klucel (hydroxypropylcellulose) (HPC)): 100 % of control | T/C (endpoint: mean survival time, dose: 400.0 mg/kg/injection, schedule: Q04DX003 (ip), vehicle: Klucel (hydroxypropylcellulose) (HPC)): 94 % of control

O=c1nc(N2CCCCCC2)ccn1C1OC(CO)C(O)C1O (stereo unspecified)
T/C (endpoint: median survival time, dose: 12.5 mg/kg/injection, schedule: Q01DX005 (ip), vehicle: distilled water + Tween-80): 101 % of control | T/C (endpoint: median survival time, dose: 25.0 mg/kg/injection, schedule: Q01DX005 (ip), vehicle: distilled water + Tween-80): 107 % of control | T/C (endpoint: median survival time, dose: 50.0 mg/kg/injection, schedule: Q01DX005 (ip), vehicle: distilled water + Tween-80): 98 % of control | T/C (endpoint: median survival time, dose: 100.0 mg/kg/injection, schedule: Q01DX005 (ip), vehicle: distilled water + Tween-80): 104 % of control | T/C (endpoint: median survival time, dose: 200.0 mg/kg/injection, schedule: Q01DX005 (ip), vehicle: distilled water + Tween-80): 106 % of control

COCC(=O)C(C(C)=O)C(c1ccncc1)C(C(C)=O)C(=O)COC (stereo unspecified)
T/C [3]: 96 % of control | T/C [4]: 98 % of control | T/C [5]: 102 % of control
